{"source": "patent US12667549B2", "about": "(DOMPÉ FARMACEUTICI S.P.A., priority 2020, dated 2026)", "key": {"[1]": {"conditions": "in vivo; cited from earlier work"}, "[2]": {"conditions": "cited from earlier work"}, "osteoarthritis": {"test_system": "osteoarthritis", "conditions": "prolonged administration; cited from earlier work"}, "[3]": {"test_system": "carrageenan-induced rat paw edema", "experiment": "Inflammatory pain in rats induced by carrageenan intraplantar injection (paw edema)", "type": "in vivo, Male Wistar rats", "conditions": "oral capsules 1 h before 1% carrageenan; KL Co-xx 47.1 mg/kg, Gabapentin 20.4 mg/kg, admixture 47.1+20.4 mg/kg; FIGS. 4 and 5", "description": "Rat chow and tap water were available ad libitum. […] Animal care was in compliance with Italian Legislative Decree (D.L. 116/92) and European Commission Directive (O.J. of E.C. L358/1, 18/12/86) regulations on the protection of laboratory animals. All efforts were made to minimize animal suffering and the number of animals used.\nEdema was expressed as the mean increase in paw volume (ml) relative to control animals."}, "[4]": {"experiment": "Plasma and brain levels of Gabapentin after oral administration as capsules", "conditions": "male, Sprague-Dawley, rat, in vivo, 2 capsules"}}, "note": "Entries after “also recorded” stand apart in the source; their conditions may differ."}
{"smiles": "NCC1(CC(=O)O)CCCCC1", "note": "[Gabapentin]", "values": [{"measurement": "side effect: ataxia", "setting": "[1]", "result": 13, "unit": "%"}, {"measurement": "side effect: dizziness", "setting": "[1]", "result": 18, "unit": "%"}, {"measurement": "side effect: fatigue", "setting": "[1]", "result": 11, "unit": "%"}, {"measurement": "side effect: somnolence", "setting": "[1]", "result": 20, "unit": "%"}, {"measurement": "time of utmost level in plasma", "setting": "[2]; after oral administration", "result": "3 to 4", "unit": "h"}, {"measurement": "binding to plasma proteins", "setting": "[2]; in vivo", "result": "does not attach to plasma proteins"}, {"measurement": "hepatic metabolism", "setting": "[2]; in vivo", "result": "neither inhibited nor metabolized by hepatic enzymes"}, {"measurement": "excretion half-life", "setting": "[2]; renal excretion", "result": "roughly 6 hours"}, {"measurement": "start of therapeutic effect in osteoarthritis (duration of administration)", "setting": "osteoarthritis", "result": 3, "unit": "months"}, {"measurement": "anti-inflammatory effect on carrageenan-evoked edema (paw volume, % inhibition)", "setting": "[3]", "result": "less effective; also recorded: little active on inflammatory pain"}, {"measurement": "Kp at 2 h", "setting": "[4]", "result": 0.378}]}
